# Measurements as given in ChEMBL document CHEMBL1129320, “The enediyne antibiotics” (J Med Chem, 1996).
# Key:
# CAPAN-1 = assay: Cytotoxic activity against Capan-1 pancreatic carcinoma tumor cell lines.; type: functional, cell-based; conditions: Homo sapiens
# H322 = assay: Cytotoxic activity against H-322 lung carcinoma tumor cell lines.; type: functional, cell-based; conditions: Homo sapiens, NCI-H322
# HMEC = assay: Cytotoxic activity against HMEC human mammary epithelial normal cell lines.; type: functional, cell-based
# HNBM = assay: Cytotoxic activity against HNBM bone marrow normal cell lines.; type: functional, cell-based; conditions: Homo sapiens
# HT-29 = assay: Cytotoxic activity against HT-29 Colon carcinoma tumor cell lines.; type: functional, cell-based; conditions: Homo sapiens
# HL-60 = assay: Cytotoxic activity against HL-60 promyelocytic leukemia tumor cell lines.; type: functional, cell-based; conditions: Homo sapiens
# M14 = assay: Cytotoxic activity against M-14 melanoma tumor cell lines.; type: functional, cell-based; conditions: Homo sapiens
# M21 = assay: Cytotoxic activity against M-21 melanoma tumor cell lines.; type: functional, cell-based; conditions: Homo sapiens
# L1210 [1] = assay: Cytotoxic activity against L-1210 mouse leukemia tumor cell lines.; type: functional, cell-based
# MCF7 = assay: Cytotoxic activity against MCF-7 breast carcinoma tumor cell lines.; type: functional, cell-based; conditions: Homo sapiens
# OVCAR-3 = assay: Cytotoxic activity against Ovcar-3 ovarian carcinoma tumor cell lines.; type: functional, cell-based; conditions: Homo sapiens
# OVCAR-4 = assay: Cytotoxic activity against Ovcar-4 ovarian carcinoma tumor cell lines.; type: functional, cell-based; conditions: Homo sapiens
# RPMI-8226 = assay: Cytotoxic activity against RPMI-8226 myeloma tumor cell lines.; type: functional, cell-based; conditions: Homo sapiens
# SK-MEL-28 = assay: Cytotoxic activity against SK-Mel-28 melanoma tumor cell lines.; type: functional, cell-based; conditions: Homo sapiens
# U-251 = assay: Cytotoxic activity against U-251 MG glioblastoma tumor cell lines.; type: functional, cell-based; conditions: Homo sapiens
# TCAF = assay: Cytotoxic activity against TCAF T-cell leukemia tumor cell lines.; type: functional, cell-based; conditions: Homo sapiens
# TCAF-DAX = assay: Cytotoxic activity against TCAF-DAX T-cell leukemia tumor cell lines.; type: functional, cell-based; conditions: Homo sapiens
# UCLA P-3 = assay: Cytotoxic activity against UCLA P-3 lung carcinoma tumor cell lines.; type: functional, cell-based; conditions: Homo sapiens
# P388 [2] = assay: Cytotoxic activity against P-388 mouse leukemia cell lines.; type: functional, cell-based
# U-87 MG = assay: Cytotoxic activity against […] astrocytoma tumor cell lines.; type: functional, cell-based, U-87MG ATCC; conditions: Homo sapiens
# NHDF = assay: Cytotoxic activity against NHDF normal human dermal fibroblast cell lines.; type: functional, cell-based
# [3] = Half life at 55 degree Centigrade; type: ADME
# [4] = Half life at 37 degree Centigrade; type: ADME
# [5] = Half life at 110 degree Centigrade; type: ADME
# B16 = assay: Optimum dose against solid neoplasm B-16 melanoma; type: functional, Mus musculus
# L1210 [6] = assay: Optimum dose against murine L1210 leukemia; type: functional, Mus musculus
# P388 [7] = assay: Optimum dose against P388 murine tumor cell line; type: functional, Mus musculus
# Colon 26 (Mus musculus) = assay: Optimum dose against solid neoplasm colon 26
compound,measurement,setting,value
O=C(OCCS(=O)(=O)c1ccccc1)N1c2ccc(OCCO)cc2[C@@]23O[C@]24CCC[C@H]3C#C/C=C\C#C[C@H]14,IC50,CAPAN-1,3.1 nM
same,IC50,H322,390 nM
same,IC50,HMEC,6300 nM
same,IC50,HNBM,50000 nM
same,IC50,HT-29,1600 nM
same,IC50,HL-60,0.036 nM
same,IC50,M14,1600 nM
same,IC50,M21,1600 nM
same,IC50,L1210 [1],1.3 nM
same,IC50,MCF7,780 nM
same,IC50,OVCAR-3,780 nM
same,IC50,OVCAR-4,780 nM
same,IC50,RPMI-8226,7.7 nM
same,IC50,SK-MEL-28,3100 nM
same,IC50,U-251,390 nM
same,IC50,TCAF,1.1 nM
same,IC50,TCAF-DAX,1.7 nM
same,IC50,UCLA P-3,98 nM
same,IC50,P388 [2],4.6 nM
same,IC50,U-87 MG,780 nM
same,IC50,NHDF,5000 nM
CC1=C(C)C(=O)C2=C(C#CCCCC(=O)C#C2)C1=O,half-life,[3],0.533 h
CNC1C(O[C@H]2C#C/C=C\C#C[C@]3(O)CC(=O)C(NC(=O)OC)[C@]24SCCC=C34)OC(C)C(O)C1O (stereo partly drawn),T1/2,[4],4.5 s
Cc1c(C)c(C(=O)OC(C)(C)C)c2c(c1C(=O)OC(C)(C)C)C#CCCCC(O)C#C2 (stereo not drawn),half-life,[5],74 h
CNC1COC(OC2C(OC3C#C/C=C\C#C[C@]4(O)CC(=O)C(NC(=O)OC)=C3/C4=C/CSSSC)OC(C)C(NOC3CC(O)C(SC(=O)c4c(C)c(I)c(OC5OC(C)C(O)C(OC)C5O)c(OC)c4OC)C(C)O3)C2O)CC1OC (stereo partly drawn) [CALICHEAMICIN DELTA1 I],OD,B16,5 µg/kg
same,OD,L1210 [6],5 µg/kg
same,OD,P388 [7],5 µg/kg
same,OD,Colon 26 (Mus musculus),5 µg/kg
COC(=O)NC1=C2/C(=C/CSSSC)[C@](O)(C#C/C=C\C#CC2OC2OC(C)C(NOC3CC(O)C(SC(=O)c4c(C)c(I)c(OC5OC(C)C(O)C(OC)C5O)c(OC)c4OC)C(C)O3)C(O)C2OC2CC(OC)C(NC(C)C)CO2)CC1=O (stereo partly drawn) [CALICHEAMICIN BETA1 I],OD,B16,5 µg/kg
same,OD,L1210 [6],5 µg/kg
same,OD,P388 [7],5 µg/kg
same,OD,Colon 26 (Mus musculus),5 µg/kg
COC(=O)NC1=C2/C(=C/CSSSC)[C@](O)(C#C/C=C\C#CC2OC2OC(C)C(NOC3CC(O)C(SC(=O)c4c(C)c(I)c(OC5OC(C)C(O)C(OC)C5O)c(OC)c4OC)C(C)O3)C(O)C2O)CC1=O (stereo partly drawn) [CALICHEAMICIN ALPHA3 I],OD,B16,5 µg/kg
same,OD,L1210 [6],5 µg/kg
same,OD,P388 [7],5 µg/kg
same,OD,Colon 26 (Mus musculus),5 µg/kg
CCN[C@H]1CO[C@@H](O[C@H]2[C@H](O[C@H]3C#C/C=C/C#C[C@@]4(O)CC(=O)C(NC(=O)OC)=C3/C4=C\CSSSC)O[C@H](C)[C@@H](NO[C@H]3C[C@H](O)[C@H](SC(=O)c4c(C)c(I)c(O[C@@H]5O[C@@H](C)[C@H](O)[C@@H](OC)[C@H]5O)c(OC)c4OC)[C@@H](C)O3)[C@@H]2O)C[C@@H]1OC [CALICHEAMICIN GAMMA1 I],OD,B16,5 µg/kg
same,OD,L1210 [6],5 µg/kg
same,OD,P388 [7],5 µg/kg
same,OD,Colon 26 (Mus musculus),5 µg/kg
CC1=C(C)C(=O)C2=C(C#CCCCC(O)C#C2)C1=O (stereo not drawn),half-life,[3],2.6 h
COC(=O)NC1=C2/C(=C/CSSSC)[C@](O)(C#C/C=C\C#CC2OC2OC(C)C(NOC3CC(O)C(SC(=O)c4c(C)c(Br)c(OC5OC(C)C(O)C(OC)C5O)c(OC)c4OC)C(C)O3)C(O)C2OC2CC(OC)C(NC(C)C)CO2)CC1=O (stereo partly drawn) [CALICHEAMICIN BETA1 BR],OD,B16,5 µg/kg
same,OD,L1210 [6],5 µg/kg
same,OD,P388 [7],5 µg/kg
same,OD,Colon 26 (Mus musculus),5 µg/kg
CCNC1COC(OC2C(OC3C#C/C=C\C#C[C@]4(O)CC(=O)C(NC(=O)OC)=C3/C4=C/CSSSC)OC(C)C(NOC3CC(O)C(SC(=O)c4c(C)c(I)c(O)c(OC)c4OC)C(C)O3)C2O)CC1OC (stereo partly drawn) [CALICHEAMICIN ALPHA1 I],OD,B16,5 µg/kg
same,OD,L1210 [6],5 µg/kg
same,OD,P388 [7],5 µg/kg
same,OD,Colon 26 (Mus musculus),5 µg/kg
CCNC1COC(OC2C(OC3C#C/C=C\C#C[C@]4(O)CC(=O)C(NC(=O)OC)=C3/C4=C/CSSSC)OC(C)C(NOC3CC(O)C(SC(=O)c4c(C)c(Br)c(OC5OC(C)C(O)C(OC)C5O)c(OC)c4OC)C(C)O3)C2O)CC1OC (stereo partly drawn) [CALICHEAMICIN GAMMA1 BR],OD,B16,5 µg/kg
same,OD,L1210 [6],5 µg/kg
same,OD,P388 [7],5 µg/kg
same,OD,Colon 26 (Mus musculus),5 µg/kg
